Test results taken from patent publication US20110098296A1, “Thiazole And Oxazole Kinase Inhibitors” (priority 2007, published 2011).
Where a name gives a salt, the structure may show the parent alone.

What was measured:
EGFR = target: T1, EGFR (Homo sapiens, UniProt P00533); experiment: EGFR substrate phosphorylation assay (HTRF); assay type: biochemical
T1 construct: made in house; host or cells: baculovirus expression system
Method: (§1) Compounds of the present invention were tested for EGFR and ErbB-2 protein tyrosine kinase inhibitory activity in substrate phosphorylation assays using enzymes purified from a baculovirus expression system. Reagent production was conducted essentially as described in Brignola, P. S., et al., (2002) J. Biol. Chem. 277(2):1576-1585.
(§2) The method measures the ability of the isolated enzyme to catalyse the transfer of the gamma-phosphate from ATP onto the tyrosine residue of a biotinylated synthetic peptide referenced “Peptide C” in Brignola, P. S., et al., (2002) J. Biol. Chem. 277(2):1576-1585. The extent of tyrosine phosphorylation was measured using an anti-phosphotyrosine antibody, and quantified by homogenous time-resolved fluorescence (HTRF).
(§3) Reactions were performed in black 384-well polystyrene flat-bottom plates in a final volume of 20 μl. Assays were performed by adding 10 μl of each of the following solutions, Substrate Mix and Enzyme Mix: The Substrate Mix contained 100 mM 3-[N-morpholino]propanesulfonic acid (MOPS) (pH 7.5), 2 mM MnCl2, 20 μM ATP, 0.01% Tween-20, 0.1 mg/mL (BSA), 0.8 uM peptide substrate, and 1 mM dithiothreitol. The Enzyme Mix contained 100 mM MOPS (pH 7.5); 0.01% Tween-20; 0.1 mg/mL BSA, and either 0.8 nM EGFR, 10 nM ErbB2, or 1 nM ErbB4
(§4) During the course of these studies, two separate methods have been used to measure the potency of compounds. In Method A (indicated as “(A)” in the tables below), the Enzyme Mix was added to the compound plates and the plates were incubated at 20° C. for 1 hr. The reactions were then started by adding the Substrate Mix. In Method B (indicated as “(B)” in the tables below), the Substrate Mix was added to the compound plates first, then the reaction was started by adding the Enzyme Mix.
(§5) After initiating the reaction with either method describe above, the reactions were allowed to proceed for 90 minutes at 20° C. The reactions were then terminated by the addition of 20 μL 100 mM EDTA to each well. 40 μL/well of HTRF detection mix were added to the assay plates. The final concentrations of the detection reagents were: 100 mM HEPES (pH7.5), 0.1 mg/mL BSA, 15 nM streptavidin-labeled allophycocyanin (PerkinElmer), and 1 nM europium-labeled anti-phosphotyrosine antibody (PerkinElmer). Assay plates were left unsealed and were counted in a Wallac Multilabel Counter 1420 (PerkinElmer).
(§6) Compounds under analysis were dissolved in dimethylsulfoxide (DMSO) to 1.0 mM and serially diluted 1 to 3 with DMSO through twelve dilutions. 1 μL of each concentration was transferred to the corresponding well of an assay plate. This creates a final compound concentration range from 0.00027 to 47.6 μM.
(§7) The data for dose responses were plotted as % Inhibition calculated with the data reduction formula 100*(1−(U1−C2)/(C1−C2)) versus concentration of compound where U1 is the unknown value, C1 is the average control value obtained for 4.76% DMSO, and C2 is the average control value obtained for 0.035 M EDTA. Data were fitted with a curve described by:
(§8) where Vmax is the upper asymptote, Y2 is the Y intercept, and K is the IC50. The results for each compound were recorded as pIC50s, calculated as follows: […]

ErbB2 = target: T2, ErbB2 (Homo sapiens, UniProt P04626); experiment: ErbB-2 substrate phosphorylation assay (HTRF); assay type: biochemical
T2 construct: made in house; host or cells: baculovirus expression system
T2 sequence (P04626 23-1255): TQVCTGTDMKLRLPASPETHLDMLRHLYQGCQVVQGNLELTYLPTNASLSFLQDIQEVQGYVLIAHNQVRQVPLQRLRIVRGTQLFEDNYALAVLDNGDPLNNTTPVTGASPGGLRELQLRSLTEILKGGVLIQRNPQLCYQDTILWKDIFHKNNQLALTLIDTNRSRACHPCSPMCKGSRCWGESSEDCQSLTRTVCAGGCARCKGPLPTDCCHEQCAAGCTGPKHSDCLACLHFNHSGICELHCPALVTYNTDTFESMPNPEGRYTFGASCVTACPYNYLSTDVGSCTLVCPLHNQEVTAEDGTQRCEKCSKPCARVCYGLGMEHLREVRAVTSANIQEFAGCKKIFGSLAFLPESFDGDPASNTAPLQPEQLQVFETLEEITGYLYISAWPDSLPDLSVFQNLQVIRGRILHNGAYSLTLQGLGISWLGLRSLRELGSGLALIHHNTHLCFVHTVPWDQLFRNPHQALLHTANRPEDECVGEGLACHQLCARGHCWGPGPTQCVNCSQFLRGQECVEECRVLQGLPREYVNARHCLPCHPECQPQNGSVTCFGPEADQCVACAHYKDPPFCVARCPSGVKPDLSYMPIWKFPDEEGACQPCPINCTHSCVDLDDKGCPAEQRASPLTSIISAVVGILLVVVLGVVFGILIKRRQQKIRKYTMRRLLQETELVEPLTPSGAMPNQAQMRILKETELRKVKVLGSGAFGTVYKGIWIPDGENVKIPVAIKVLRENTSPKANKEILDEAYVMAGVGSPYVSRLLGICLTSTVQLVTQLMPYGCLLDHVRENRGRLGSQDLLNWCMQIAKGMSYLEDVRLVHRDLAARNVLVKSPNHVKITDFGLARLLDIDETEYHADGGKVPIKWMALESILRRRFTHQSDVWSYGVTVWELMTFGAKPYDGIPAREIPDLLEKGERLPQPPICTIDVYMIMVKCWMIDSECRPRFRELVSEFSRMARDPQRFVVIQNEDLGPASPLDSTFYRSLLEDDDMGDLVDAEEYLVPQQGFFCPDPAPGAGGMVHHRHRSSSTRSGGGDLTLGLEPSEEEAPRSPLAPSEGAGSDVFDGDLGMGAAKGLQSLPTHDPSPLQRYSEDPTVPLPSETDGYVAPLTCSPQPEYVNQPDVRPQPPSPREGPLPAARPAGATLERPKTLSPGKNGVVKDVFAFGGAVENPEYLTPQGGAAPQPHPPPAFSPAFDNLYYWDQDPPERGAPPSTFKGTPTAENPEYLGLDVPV
Method: as §1, §2, §3, §4, §5, §6, §7, §8

BT474 tumor cells = experiment: Method C: Cell Growth Inhibition Assay (CellTiter-Glo), BT474; assay type: cell-based; details: Homo sapiens, BT-474, 72 h, 3 days, 4-parameter fit
Method: (§9) Human breast tumor cells (BT474) were cultured in RPMI (Mediatech 50-011-PB), containing 10% FBS (JRH Biosciences 12176) and 1% penicillin-streptomycin (Invitrogen 15140). Human head and neck tumor cells (HN5) were cultured in high glucose DMEM (Mediatech 50-013-PB) containing 10% FBS and 1% penicillin-streptomycin. Human colon tumor cells (Colo205) were cultured in RPMI (Mediatech 50-020-PB) containing 10% FBS and 1% penicillin-streptomycin. Human melanoma cancer cells (SK-MEL-28) were cultured in EMEM with nonessential amino acids (Mediatech 50-011-PB) containing 10% FBS, 1% sodium pyruvate (JT Baker 3354-04), and 1% penicillin-streptomycin. Human melanoma cancer cells (A375P F11s) were cultured in RPMI (Mediatech 50-020-PB) containing 10% FBS, 1% sodium pyruvate, and 1% penicillin-streptomycin. Human colon cancer cells (HT-29) were cultured in high glucose DMEM (Mediatech 50-013-PB) containing 10% FBS and 1% penicillin-streptomycin. Human melanoma cancer cells (SK-MEL-3) were cultured in McCoy's 5A (50-025-PB) containing 15% FBS, and 1% penicillin-streptomycin. All cell lines were maintained at 37° C. in a humidified 5% CO2, 95% air incubator. Cells were harvested using trypsin/EDTA (Invitrogen 25200), counted using an haemocytometer, and plated. For 96-well assays (using white full-area NUNC plates cat. #136102), cells were plated in 105 μL at the following densities (cells/well): HN5, 500; Colo205, 500; SK-MEL-28, 500; A375P-F11s, 500; HT-29, 500; SK-MEL-3, 500; and BT474, 3000. For 384-well assays (white full-area NUNC plates, cat. #781080), cells were plated in 48 μL at the following densities (cells/well): HN5, 500; Colo205, 500; SK-MEL-28, 500; A375P-F11s, 500; HT29, 500; SK-MEL-3, 500; and BT474, 2000.
(§10) The next day, compounds were diluted as follow: For 96-well assays, 13.5 μL of compound in DMSO were diluted using nine (9) serial 1:3 dilutions of 4.5 μL in 9 μL of DMSO. Medium (270 μl/well of RPMI with 10% FBS and 1% penicillin-streptomycin) was added to the plates. Aliquots (7 μl) were added to cells in the final assay giving a final DMSO concentration of 0.2%. For 384-well assays, 15 μL of compound in DMSO were diluted using nine (9) serial 1:3 dilutions of 5 μL in 10 μL of DMSO, followed by a further dilution of 5 μL of compound with 95 μL of medium, of which 2 μL were added to cells in the final assay giving a final DMSO concentration of 0.2%. Cells were incubated at 37° C., 5% CO2 for 3 days.
(§11) Total ATP was measured (as a surrogate estimate of cell number) using CellTiter-Glo® reagent (Promega G7571). Briefly, plates were removed from the incubator and allowed to equilibrate to room temperature for 30 minutes. CellTiter-Glo® (25 μL or 55 μL for 384-well or 96-well assays, respectively) reagent was added to each well and plates were shaken on an orbital plate shaker for 2 mins. Plates were incubated without shaking for a further 30 mins and read on an LJL Analyst GT reader in luminometer mode with an integration time of 0.5 seconds per well. Percent inhibition of cell growth was calculated relative to DMSO vehicle-treated control wells. Concentration of compound required to give 50% inhibition of vehicle-treated control cell growth (IC50) was interpolated using a 4-parameter fit for determining IC50 using the following equation: Y=A+((B−A)/(1+((C/X)̂D))) where X=IC50.

Colo205 tumor cells = experiment: Method C: Cell Growth Inhibition Assay (CellTiter-Glo), Colo205; assay type: cell-based; details: Homo sapiens, COLO 205, 72 h, 3 days, 4-parameter fit
Method: as §9, §10, §11

SK-MEL-28 tumor cells = experiment: Method C: Cell Growth Inhibition Assay (CellTiter-Glo), SK-MEL-28; assay type: cell-based; details: Homo sapiens, SK-MEL-28, 72 h, 3 days, 4-parameter fit
Method: as §9, §10, §11

[1] = Method (A): Enzyme Mix incubated with compound at 20° C. for 1 hr, reaction started by adding Substrate Mix
[2] = Method (B): Substrate Mix added to compound first, reaction started by adding Enzyme Mix

T1 sequence (P00533 25-1210): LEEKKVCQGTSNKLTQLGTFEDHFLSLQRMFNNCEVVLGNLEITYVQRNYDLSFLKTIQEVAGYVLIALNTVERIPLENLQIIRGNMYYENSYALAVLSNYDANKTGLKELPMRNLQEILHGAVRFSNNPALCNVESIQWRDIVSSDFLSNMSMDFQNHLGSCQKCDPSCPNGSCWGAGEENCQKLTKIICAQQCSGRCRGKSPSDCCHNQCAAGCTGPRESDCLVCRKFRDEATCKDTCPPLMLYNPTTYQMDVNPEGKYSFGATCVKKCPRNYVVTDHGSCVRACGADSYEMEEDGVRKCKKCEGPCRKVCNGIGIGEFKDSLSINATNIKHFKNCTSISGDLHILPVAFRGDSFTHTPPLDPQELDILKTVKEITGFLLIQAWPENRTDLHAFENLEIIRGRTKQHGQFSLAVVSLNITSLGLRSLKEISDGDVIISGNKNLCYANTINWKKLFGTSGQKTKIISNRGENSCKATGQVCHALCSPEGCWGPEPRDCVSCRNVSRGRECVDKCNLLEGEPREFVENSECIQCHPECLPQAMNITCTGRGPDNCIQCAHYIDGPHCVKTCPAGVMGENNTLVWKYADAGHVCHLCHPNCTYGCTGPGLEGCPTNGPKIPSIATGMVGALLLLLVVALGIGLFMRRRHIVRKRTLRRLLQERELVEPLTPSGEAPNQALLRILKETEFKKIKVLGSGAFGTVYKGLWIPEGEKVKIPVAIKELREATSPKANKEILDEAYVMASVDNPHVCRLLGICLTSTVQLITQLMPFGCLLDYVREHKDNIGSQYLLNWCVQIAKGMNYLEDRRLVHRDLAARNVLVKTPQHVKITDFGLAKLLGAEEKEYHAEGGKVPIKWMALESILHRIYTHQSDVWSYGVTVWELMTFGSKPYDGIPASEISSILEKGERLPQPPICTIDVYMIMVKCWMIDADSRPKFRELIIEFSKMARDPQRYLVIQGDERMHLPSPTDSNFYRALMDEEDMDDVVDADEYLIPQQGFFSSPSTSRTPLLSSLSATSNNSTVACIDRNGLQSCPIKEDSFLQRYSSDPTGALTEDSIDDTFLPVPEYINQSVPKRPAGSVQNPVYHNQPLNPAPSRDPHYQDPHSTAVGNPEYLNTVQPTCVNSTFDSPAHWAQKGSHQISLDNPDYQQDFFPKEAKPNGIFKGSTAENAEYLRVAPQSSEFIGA

| Structure (SMILES) | IC50 (EGFR; [1]) | IC50 (ErbB2; [1]) | IC50 (BT474 tumor cells) | IC50 (Colo205 tumor cells) | IC50 (SK-MEL-28 tumor cells) | IC50 (EGFR; [2]) | IC50 (ErbB2; [2]) |
| --- | --- | --- | --- | --- | --- | --- | --- |
| O=C(Nc1cccc(-c2nc(N3CCCCC3)sc2-c2ccnc(Nc3cccc(CN4CCCC4)c3)n2)c1)c1c(F)cccc1F [Example 73, 2,6-Difluoro-N-{3-[2-(1-piperidinyl)-5-(2-{[3-(1-pyrrolidinylmethyl)phenyl]amino}-4-pyrimidinyl)-1,3-thiazol-4-yl]phenyl}benzamide] | < 100 nM | < 100 nM | 100 to 1000 nM | 100 to 1000 nM | > 1000 nM | – | – |
| Cc1nc(-c2cccc(NC(=O)Nc3ccc(Cl)c(C(F)(F)F)c3)c2)c(-c2ccnc(Nc3ccc4c(c3)CN(C)CC4)n2)s1 [Example 129] | 100 to 1000 nM | < 100 nM | > 1000 nM | 100 to 1000 nM | > 1000 nM | – | – |
| Cc1nc(-c2cccc(NC(=O)Nc3ccc(Cl)c(C(F)(F)F)c3)c2)c(-c2ccnc(Nc3ccc(OCCN(C)C)c(Cl)c3)n2)s1 [Example 133, N-[3-(5-{2-[(3-Chloro-4-{[2-(dimethylamino)ethyl]oxy}Phenyl)amino]-4-pyrimidinyl}-2-methyl-1,3-thiazol-4-yl)phenyl]-N′-[4-chloro-3-(trifluoromethyl)phenyl]urea] | 100 to 1000 nM | 100 to 1000 nM | > 1000 nM | 100 to 1000 nM | 100 to 1000 nM | – | – |
| CCc1nc(-c2cccc(NC(=O)c3c(F)cccc3F)c2)c(-c2ccnc(Nc3ccc(OCCN4CCCC4)c(F)c3)n2)s1 [Example 117, N-[3-(2-Ethyl-5-{2-[(3-fluoro-4-{[2-(1-pyrrolidinyl)ethyl]oxy}phenyl)amino]-4-pyrimidinyl}-1,3-thiazol-4-yl)phenyl]-2,6-difluorobenzamide] | < 100 nM | < 100 nM | 100 to 1000 nM | > 1000 nM | > 1000 nM | – | – |
| Cc1nc(-c2cccc(NC(=O)c3c(F)cccc3F)c2)c(-c2ccnc(Nc3ccc(OCCN4CCCC4)c(Cl)c3)n2)s1 [Example 110, N-[3-(5-{2-[(3-Chloro-4-{[2-(1-pyrrolidinyl)ethyl]oxy}phenyl)amino]-4-pyrimidinyl}-2-methyl-1,3-thiazol-4-yl)phenyl]-2,6-difluorobenzamide] | < 100 nM | < 100 nM | 100 to 1000 nM | > 1000 nM | > 1000 nM | – | – |
| CCc1nc(-c2cccc(NC(=O)c3c(F)cccc3F)c2)c(-c2ccnc(Nc3ccc(N4CCC(N5CCCCC5)CC4)c(F)c3)n2)s1 [Example 116, N-{3-[5-(2-{[4-(1,4′-Bipiperidin-1′-yl)-3-fluorophenyl]amino}-4-pyrimidinyl)-2-ethyl-1,3-thiazol-4-yl]phenyl}-2,6-difluorobenzamide] | < 100 nM | < 100 nM | – | 100 to 1000 nM | > 1000 nM | – | – |
| CN(C)c1nc(-c2cccc(NC(=O)c3c(F)cccc3F)c2)c(-c2ccnc(Nc3ccc(N4CCOCC4)c(Cl)c3)n2)s1 [Example 41, N-{3-[5-(2-{[3-Chloro-4-(4-morpholinyl)phenyl]amino}-4-pyrimidinyl)-2-(dimethylamino)-1,3-thiazol-4-yl]phenyl}-2,6-difluorobenzamide trifluoroacetate] | < 100 nM | < 100 nM | – | > 1000 nM | > 1000 nM | – | – |

The remaining lines, values ahead:

| IC50 (EGFR; [1]) | IC50 (ErbB2; [1]) | IC50 (BT474 tumor cells) | IC50 (Colo205 tumor cells) | IC50 (SK-MEL-28 tumor cells) | IC50 (EGFR; [2]) | IC50 (ErbB2; [2]) | Structure (SMILES) |
| --- | --- | --- | --- | --- | --- | --- | --- |
| < 100 nM | < 100 nM | 100 to 1000 nM | 100 to 1000 nM | > 1000 nM | – | – | CN1CCN(c2nc(-c3cccc(NC(=O)c4c(F)cccc4F)c3)c(-c3ccnc(Nc4cccc(CN5CCCC5)c4)n3)s2)CC1 [Example 46, 2,6-Difluoro-N-{3-[2-(4-methyl-1-piperazinyl)-5-(2-{[3-(1-pyrrolidinylmethyl)phenyl]amino}-4-pyrimidinyl)-1,3-thiazol-4-yl]phenyl}benzamide] |
| – | – | – | – | – | > 1000 nM | > 1000 nM | O=C(Nc1cccc(-c2ncoc2-c2ccnc(Nc3cccc(F)c3)n2)c1)c1c(F)cccc1F [Example 141, 2,6-Difluoro-N-[3-(5-{2-[(3-fluorophenyl)amino]-4-pyrimidinyl}-1,3-oxazol-4-yl)phenyl]benzamide] |
| < 100 nM | < 100 nM | – | 100 to 1000 nM | > 1000 nM | – | – | CN(C)c1nc(-c2cccc(NC(=O)c3c(F)cccc3F)c2)c(-c2ccnc(Nc3ccc(OCCN4CCCC4)nc3)n2)s1 [Example 43, N-[3-(2-(Dimethylamino)-5-{2-[(6-{[2-(1-pyrrolidinyl)ethyl]oxy}-3-pyridinyl)amino]-4-pyrimidinyl}-1,3-thiazol-4-yl)phenyl]-2,6-difluorobenzamide] |
| < 100 nM | < 100 nM | – | > 1000 nM | > 1000 nM | – | – | O=C(Nc1cccc(-c2nc(CF)sc2-c2ccnc(Nc3ccc(OCCN4CCCC4)c(F)c3)n2)c1)c1c(F)cccc1F [Example 127] |
